{"source": "paper PMC9232501", "about": "“Results of the phase I CCTG IND.231 trial of CX-5461 in patients with advanced solid tumors enriched for DNA-repair deficiencies” (Nature Communications, 2022)", "tested_on": "HCT116 cells", "experiment": "HCT116 cytotoxicity (WST-1 assay) with and without UVA radiation", "format": "cell-based, Human", "details": "for potentiation of UVA-induced cytotoxicity: UV 5 mJ/cm^2 and 125 mJ/cm^2; for WST-1 raw signal (Figure 5d): replicates", "method": "Fig. 5 Comparison of G4 ligand photosensitization. […] Vertical axis, fractional survival, horizontal axis log10 drug concentration (M) (f) Representative images of CPD immunofluorescent staining under UV and drug treatment conditions for U2OS cells, quantified from biological duplicates in (g) (h) Scale bar = 100um. U2OS cells were treated with drug or vehicle control, then immediately irradiated with UVA 125 mJ/cm^2; and fixed 1 h later for immunofluorescence staining with CPD antibody. g Distribution of mean intensity of CPD level per cell (total n = in labels), with two biological repeats per condition. Vertical axis, mean CPD intensity per cell, horizontal axis, conditions (h) WT or KO XPA HAP1 cells assayed for cytotoxicity. Vertical axis, fractional survival (WST-1 assay). The horizontal axis, log10 drug concentration (M). Error bars = standard deviation of the mean. Three biological repeats per condition.\nHuman epidermal keratinocytes (HEKa) cells were sourced from Thermo Fisher Scientific, and were grown in EpiLife™ Medium with HKGS. HAP WT and XPA knockout cell lines (Horizon Discovery) were cultured in IMDM, 10% FCS. Human HCT116 cells, U2OS cells (ATCC) were grown in McCoy’s 5 A medium with 10% FBS and L-glutamine. All cell lines are mycoplasma free and have been authenticated by STR or SNP profiling. CX-5461 was provided by Senhwa Biosciences, Inc. PDS is from Sigma-Aldrich, BRACO-19 from Alfa Chemistry, PhENDC3 is from Sigma-Aldrich, γ -H2AX antibody from Abcam (1:1000 for IF) and CPD antibody (1:1500) from Cosmo Bio Ltd. (Catalog number: CAC-NM-DAD-001). The WST-1 assay was performed as previously described, γ H2AX foci staining was performed as previously described. Immunofluorescence staining of CPD was performed according to the protocol from the manufacturer (Cosmo Bio Ltd).", "note": "Values joined by “and” are separate entries in the source; they are usually repeats but may differ in a detail not shown here. Equal entries are not always repeated."}
{"compound": "C[n+]1ccc(-c2c3nc(c(-c4cc[n+](C)cc4)c4ccc([nH]4)c(-c4cc[n+](C)cc4)c4nc(c(-c5cc[n+](C)cc5)c5ccc2[nH]5)C=C4)C=C3)cc1", "note": "[TMPYP4]", "values": [{"measurement": "potentiation of UVA-induced cytotoxicity", "value": "not"}]}
{"compound": "CN(C)c1ccc(Nc2c3ccc(NC(=O)CCN4CCCC4)cc3nc3cc(NC(=O)CCN4CCCC4)ccc23)cc1", "note": "[BRACO-19]", "values": [{"measurement": "potentiation of UVA-induced cytotoxicity", "value": "not"}, {"measurement": "WST-1 raw signal (Figure 5d)", "setting": "conc 1.31e-6, 5mJ/cm2 UV", "value": "2.4666 and 1.6857"}, {"measurement": "WST-1 raw signal (Figure 5d)", "setting": "conc 1.31e-6, 125mJ/cm2 UV", "value": "1.7146 and 2.5235"}, {"measurement": "WST-1 raw signal (Figure 5d)", "setting": "conc 1.31e-6, no UV", "value": "1.0028 and 1.1127 and 1.1944"}, {"measurement": "WST-1 raw signal (Figure 5d)", "setting": "conc 2.63e-6, 5mJ/cm2 UV", "value": "1.5923 and 2.1232"}, {"measurement": "WST-1 raw signal (Figure 5d)", "setting": "conc 2.63e-6, 125mJ/cm2 UV", "value": "1.7241 and 1.9009"}, {"measurement": "WST-1 raw signal (Figure 5d)", "setting": "conc 2.63e-6, no UV", "value": "1.0332 and 1.1578 and 1.2506"}, {"measurement": "WST-1 raw signal (Figure 5d)", "setting": "conc 5.25e-6, 5mJ/cm2 UV", "value": "2.5376 and 1.7122"}, {"measurement": "WST-1 raw signal (Figure 5d)", "setting": "conc 5.25e-6, 125mJ/cm2 UV", "value": "1.8158 and 1.6795"}, {"measurement": "WST-1 raw signal (Figure 5d)", "setting": "conc 5.25e-6, no UV", "value": "0.8877 and 1.1208 and 1.1731"}, {"measurement": "WST-1 raw signal (Figure 5d)", "setting": "conc 1.05e-5, 5mJ/cm2 UV", "value": "2.0499 and 1.7849"}, {"measurement": "WST-1 raw signal (Figure 5d)", "setting": "conc 1.05e-5, 125mJ/cm2 UV", "value": "1.734 and 1.5629"}, {"measurement": "WST-1 raw signal (Figure 5d)", "setting": "conc 1.05e-5, no UV", "value": "0.9118 and 1.1353 and 1.1139"}, {"measurement": "WST-1 raw signal (Figure 5d)", "setting": "conc 2.1e-5, 5mJ/cm2 UV", "value": "2.2151 and 1.3748"}, {"measurement": "WST-1 raw signal (Figure 5d)", "setting": "conc 2.1e-5, 125mJ/cm2 UV", "value": "1.3993 and 1.3857"}, {"measurement": "WST-1 raw signal (Figure 5d)", "setting": "conc 2.1e-5, no UV", "value": "0.9051 and 1.0979 and 1.0693"}, {"measurement": "WST-1 raw signal (Figure 5d)", "setting": "conc 4.2e-5, 5mJ/cm2 UV", "value": "1.7663 and 1.2587"}, {"measurement": "WST-1 raw signal (Figure 5d)", "setting": "conc 4.2e-5, 125mJ/cm2 UV", "value": "1.2502 and 1.0049"}, {"measurement": "WST-1 raw signal (Figure 5d)", "setting": "conc 4.2e-5, no UV", "value": "0.8968 and 1.0934 and 1.1351"}, {"measurement": "WST-1 raw signal (Figure 5d)", "setting": "conc 8.4e-5, 5mJ/cm2 UV", "value": "0.4969 and 0.3888"}, {"measurement": "WST-1 raw signal (Figure 5d)", "setting": "conc 8.4e-5, 125mJ/cm2 UV", "value": "0.4246 and 0.5991"}, {"measurement": "WST-1 raw signal (Figure 5d)", "setting": "conc 8.4e-5, no UV", "value": "0.3873 and 0.5407 and 0.5015"}, {"measurement": "WST-1 raw signal (Figure 5d)", "setting": "conc 1.64E-07, 5mJ/cm2 UV", "value": "2.3685 and 1.9812"}, {"measurement": "WST-1 raw signal (Figure 5d)", "setting": "conc 1.64E-07, 125mJ/cm2 UV", "value": "1.617 and 1.4273"}, {"measurement": "WST-1 raw signal (Figure 5d)", "setting": "conc 1.64E-07, no UV", "value": "1.0063 and 1.0872 and 1.153"}, {"measurement": "WST-1 raw signal (Figure 5d)", "setting": "conc 3.28E-07, 5mJ/cm2 UV", "value": "1.3974 and 1.689"}, {"measurement": "WST-1 raw signal (Figure 5d)", "setting": "conc 3.28E-07, 125mJ/cm2 UV", "value": "1.2981 and 1.6967"}, {"measurement": "WST-1 raw signal (Figure 5d)", "setting": "conc 3.28E-07, no UV", "value": "0.8955 and 1.1379 and 1.1636"}, {"measurement": "WST-1 raw signal (Figure 5d)", "setting": "conc 6.56E-07, 5mJ/cm2 UV", "value": "2.2078 and 2.2342"}, {"measurement": "WST-1 raw signal (Figure 5d)", "setting": "conc 6.56E-07, 125mJ/cm2 UV", "value": "1.8184 and 2.0816"}, {"measurement": "WST-1 raw signal (Figure 5d)", "setting": "conc 6.56E-07, no UV", "value": "1.0072 and 1.1785 and 1.064"}]}
